In patent US7514417B2 (CV Therapeutics, Inc., priority 2005, dated 2009):

Biological target: T1, A1 adenosine receptor (Mesocricetus auratus, UniProt A0A1U8BVR4)
T1 construct: A1 adenosine receptor sites on the membranes of DDT cells; endogenous in cells; host or cells: DDT cells (DDT1, hamster vas deferens smooth muscle cell line), membrane preparation
T1 sequence (A0A1U8BVR4 1-326): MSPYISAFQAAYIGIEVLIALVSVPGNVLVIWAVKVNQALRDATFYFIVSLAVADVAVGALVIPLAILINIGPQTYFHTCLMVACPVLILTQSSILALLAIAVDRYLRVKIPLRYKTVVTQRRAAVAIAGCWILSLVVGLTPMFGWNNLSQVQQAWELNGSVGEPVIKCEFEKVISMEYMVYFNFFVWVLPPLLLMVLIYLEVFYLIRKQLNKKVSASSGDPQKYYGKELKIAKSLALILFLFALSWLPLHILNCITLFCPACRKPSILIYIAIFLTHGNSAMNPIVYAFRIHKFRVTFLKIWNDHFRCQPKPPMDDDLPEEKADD
Experiment: Competitive radioligand binding assay, A1 binding affinity, DDT1 cell membranes
Design: species or system hamster
Details: membranes of DDT cells, tritiated radioligand (3H-CPA) 1.5 nM, 23° C. 90 minutes
Protocol: DDT cells (hamster vas deferens smooth muscle cell line) were grown as monolayers in petri dishes using Dulbecco's Modified Eagle's Medium (DMEM) containing 2.5 μg mL^−1 amphotericin B, 100 U mL^−1 penicillin G, 0.1 mg mL^−1 streptomycin sulfate and 5% fetal bovine serum in a humidified atmosphere of 95% air and 5% CO2. Cells were subcultured twice weekly by dispersion in Hank's Balanced Salt Solution (HBSS) without the divalent cations and containing 1 mM EDTA. The cells were then seeded in growth medium at a density of 1.2×10^5 cells per plate and experiments were performed 4 days later at approximately one day preconfluence.
Attached cells were washed twice with HBSS (2×10 mL), scraped free of the plate with the aid of a rubber policeman in 5 mL of 50 mM Tris-HCl buffer pH 7.4 at 4° C. and the suspension was homogenized for 10 s. The suspension was then centrifuged at 27,000×g for 10 min. The pellet was resuspended in homogenization buffer by vortexing and centrifuged again as described above. The final pellet was resuspended in 1 vol of 50 mM Tris-HCl buffer pH 7.4 containing 5 mM MgCl2 for A1 adenosine receptor assays. For the [^35S]GTPγS binding assay the final pellet was resuspended in 50 mM Tris-HCl pH 7.4 containing 5 mM MgCl2, 100 mM NaCl and 1 mM dithiothreitol. This membrane suspension was then placed in liquid nitrogen for 10 min and stored at −80° C. Aliquots of the membrane suspension were later thawed and used for assays. The protein content was determined with a Bradford™ Assay Kit using bovine serum albumin as standard.
Briefly, 50-70 ug of membrane protein were incubated in a mixture containing 2U/ml adenosine deaminase and 10 μM GTP-γS in 50 mM Tris-HCl buffer, pH 7.4, with 1 mM EDTA in glass tubes. Stock solutions of the compounds of the invention were serially diluted (10^−10M to 10^−4M) in Tris buffer and added to the incubation mixture. […] After incubation at 23° C. 90 minutes, the reaction was stopped by filtration on a Brandel MR24 cell harvester and washing with ice-cold Tris-EDTA buffer (three times, approximate volume 10 ml/wash) over Whatman GF/B filters (presoaked for 1 h in 0.3% polyethylenimine to reduce non-specific binding). Filters were transferred to scintillation vials and 5 ml of Scintisafe (VWR, Brisbane, Calif.) was added. The amount of radioactivity retained on the filters was determined by liquid scintillation spectrometry.

Compound | Ki
CCNC(=O)[C@H]1O[C@@H](n2cnc3c(N[C@@H]4CCOC4)nc(-n4cc(-c5ccc6ccccc6n5)cn4)nc32)[C@H](O)[C@@H]1O | 74 nM
Cc1cc(C)n(-c2nc(NC3CCCC3)c3ncn(C4O[C@H](CO)[C@@H](O)[C@H]4O)c3n2)n1 (stereo partly drawn) [listing 1 of 2 here] | 134 nM
CCNC(=O)[C@H]1O[C@@H](n2cnc3c(N[C@@H]4CCOC4)nc(-n4cc(-c5ccncc5)cn4)nc32)[C@H](O)[C@@H]1O | 1060 nM
Cc1ccc(-c2cnn(-c3nc(N[C@@H]4CCOC4)c4ncn([C@@H]5O[C@H](C(=O)O)[C@@H](O)[C@H]5O)c4n3)c2)cc1 | 121 nM
Cc1cc(C)n(-c2nc(NC3CCCC3)c3ncn(C4O[C@H](CO)[C@@H](O)[C@H]4O)c3n2)n1 (stereo partly drawn) [listing 2 of 2 here] | 94 nM
CCOC(=O)c1cnn(-c2nc(NC3CCCC3)c3ncn([C@@H]4O[C@H](CO)[C@@H](O)[C@H]4O)c3n2)c1 (single isomer, unassigned) [XXV] | 0.9 nM
O=C(NCc1cc(F)cc(C(F)(F)F)c1)c1cnn(-c2nc(N[C@@H]3CCOC3)c3ncn([C@@H]4O[C@H](CO)C(O)C4O)c3n2)c1 (stereo in doubt) [XXI, (1-{6-[((3R)oxolan-3-yl)amino]-9-[(3S,2R,4R,5R)-3,4-dihydroxy-5-(hydroxymethyl)oxolan-2-yl]purin-2-yl}pyrazol-4-yl)-N-{[5-fluoro-3-(trifluoromethyl)phenyl]methyl}carboxamide] | 56 nM
CCOC(=O)c1cnn(-c2nc(NC3CCCC3)c3ncn([C@@H]4O[C@H](CO)[C@@H](O)[C@H]4O)c3n2)c1 [III, ethyl 1-{9-[(4S,3R,5R)-3,4-dihydroxy-5-(hydroxymethyl)oxolan-2-yl]-6-(cyclopentylamino)purin-2-yl}pyrazole-4-carboxylate] | 36 nM
CCNC(=O)[C@H]1O[C@@H](n2cnc3c(NC4CCOC4)nc(-n4cc(-c5ccc(C)cc5)cn4)nc32)[C@H](O)[C@@H]1O (stereo partly drawn) [I] | 2000 nM
CCNC(=O)c1cnn(-c2nc(N[C@@H]3CCOC3)c3ncn([C@@H]4O[C@H](CO)[C@@H](O)[C@H]4O)c3n2)c1 [XI, (1-{6-[((3R)oxolan-3-yl)amino]-9-[(4S,2R,3R,5R)-3,4-dihydroxy-5-(hydroxymethyl)oxolan-2-yl]purin-2-yl}pyrazol-4-yl)-N-ethylcarboxamide] | 10 nM
CCOC(=O)c1cnn(-c2nc(NCc3ccccc3)c3ncn([C@@H]4O[C@H](CO)[C@@H](O)[C@H]4O)c3n2)c1 [XII, ethyl 1-{9-[(4S,2R,3R,5R)-3,4-dihydroxy-5-(hydroxymethyl)oxolan-2-yl]-6-[benzylamino]purin-2-yl}pyrazole-4-carboxylate] | 1720 nM
CCCNC(=O)c1cnn(-c2nc(N[C@@H]3CCOC3)c3ncn([C@@H]4O[C@H](CO)[C@@H](O)[C@H]4O)c3n2)c1 [XIII, (1-{6-[((3R)oxolan-3-yl)amino]-9-[(4S,2R,3R,5R)-3,4-dihydroxy-5-(hydroxymethyl)oxolan-2-yl]purin-2-yl}pyrazol-4-yl)-N-propylcarboxamide] | 10 nM
CCCNC(=O)c1cnn(-c2nc(NCc3ccccc3)c3ncn([C@@H]4O[C@H](CO)[C@@H](O)[C@H]4O)c3n2)c1 [XIV, (1-{9-[(4S,2R,3R,5R)-3,4-dihydroxy-5-(hydroxymethyl)oxolan-2-yl]-6-[benzylamino]purin-2-yl}pyrazol-4-yl)-N-propylcarboxamide] | 1090 nM
O=C(NCc1ccc(F)cc1)c1cnn(-c2nc(N[C@@H]3CCOC3)c3ncn([C@@H]4O[C@H](CO)[C@@H](O)[C@H]4O)c3n2)c1 [XIX, (1-{6-[((3R)oxolan-3-yl)amino]-9-[(4S,2R,3R,5R)-3,4-dihydroxy-5-(hydroxymethyl)oxolan-2-yl]purin-2-yl}pyrazol-4-yl)-N-[(4-fluorophenyl)methyl] carboxamide] | 43 nM
CCNC(=O)c1cnn(-c2nc(NCc3ccccc3)c3ncn([C@@H]4O[C@H](CO)[C@@H](O)[C@H]4O)c3n2)c1 [XV, (1-{9-[(4S,2R,3R,5R)-3,4-dihydroxy-5-(hydroxymethyl)oxolan-2-yl]-6-[benzylamino]purin-2-yl}pyrazol-4-yl)-N-ethylcarboxamide] | 1530 nM
CNC(=O)c1cnn(-c2nc(NCc3ccccc3)c3ncn([C@@H]4O[C@H](CO)[C@@H](O)[C@H]4O)c3n2)c1 [XVI, (1-{9-[(4S,2R,3R,5R)-3,4-dihydroxy-5-(hydroxymethyl)oxolan-2-yl]-6-[benzylamino]purin-2-yl}pyrazol-4-yl)-N-methylcarboxamide] | 1790 nM
O=C(O)c1ccc(-c2cnn(-c3nc(N[C@@H]4CCOC4)c4ncn(C5OC(CO)C(O)C5O)c4n3)c2)nc1 (stereo partly drawn) [XVII, 6-(1-{6-[((3R)oxolan-3-yl)amino]-9-[3,4-dihydroxy-5-(hydroxymethyl)oxolan-2-yl]purin-2-yl}pyrazol-4-yl)pyridine-3-carboxylic acid] | 64 nM
O=C(NCc1ccc(Cl)cc1)c1cnn(-c2nc(N[C@@H]3CCOC3)c3ncn([C@@H]4O[C@H](CO)[C@@H](O)[C@H]4O)c3n2)c1 [XVIII, (1-{6-[((3R)oxolan-3-yl)amino]-9-[(4S,2R,3R,5R)-3,4-dihydroxy-5-(hydroxymethyl)oxolan-2-yl]purin-2-yl}pyrazol-4-yl)-N-[(4-chlorophenyl)methyl]carboxamide] | 27 nM
O=C(NCc1ccccc1)c1cnn(-c2nc(N[C@@H]3CCOC3)c3ncn([C@@H]4O[C@H](CO)[C@@H](O)[C@H]4O)c3n2)c1 [XX, (1-{6-[((3R)oxolan-3-yl)amino]-9-[(4S,2R,3R,5R)-3,4-dihydroxy-5-(hydroxymethyl)oxolan-2-yl]purin-2-yl}pyrazol-4-yl)-N-benzylcarboxamide] | 1 nM
COC(=O)c1ccc(CNC(=O)c2cnn(-c3nc(N[C@@H]4CCOC4)c4ncn([C@@H]5O[C@H](CO)[C@@H](O)[C@H]5O)c4n3)c2)cc1 [XXIX, methyl 4-{[(1-{6-[((3R)oxolan-3-yl)amino]-9-[(4S,2R,3R,5R)-3,4-dihydroxy-5-(hydroxymethyl)oxolan-2-yl]purin-2-yl}pyrazol-4-yl)carbonylamino]methyl}benzoate] | 6 nM
O=C(O)c1ccc(CNC(=O)c2cnn(-c3nc(N[C@@H]4CCOC4)c4ncn([C@@H]5O[C@H](CO)[C@@H](O)[C@H]5O)c4n3)c2)cc1 [XXX, 4-{[(1-{6-[((3R)oxolan-3-yl)amino]-9-[(4S,2R,3R,5R)-3,4-dihydroxy-5-(hydroxymethyl)oxolan-2-yl]purin-2-yl}pyrazol-4-yl)carbonylamino]methyl}benzoic acid] | 8 nM
O=C(O)c1cnn(-c2nc(NC3CCCC3)c3ncn([C@@H]4O[C@H](CO)[C@@H](O)[C@H]4O)c3n2)c1 [XXXI, 1-{9-[(4S,3R,5R)-3,4-dihydroxy-5-(hydroxymethyl)oxolan-2-yl]-6-(cyclopentylamino)purin-2-yl}pyrazole-4-carboxylic acid] | 8 nM
NC(=O)c1cnn(-c2nc(NC3CCCC3)c3ncn([C@@H]4O[C@H](CO)[C@@H](O)[C@H]4O)c3n2)c1 [XXXII, 1-(9-[(4S,3R,5R)-3,4-dihydroxy-5-(hydroxymethyl)oxolan-2-yl]-6-(cyclopentylamino)purin-2-yl}pyrazole-4-carboxamide] | 0.59 nM
CCOC(=O)c1cnn(-c2nc(NC3CC4CCC3C4)c3ncn(C4O[C@H](CO)[C@@H](O)[C@H]4O)c3n2)c1 (stereo partly drawn) [XXXIII, ethyl 1-{9-[(4S,3R,5R)-3,4-dihydroxy-5-(hydroxymethyl)oxolan-2-yl]-6-(bicyclo[2.2.1]hept-2-ylamino)purin-2-yl}pyrazole-4-carboxylate] | 2 nM
